Target: Dipeptidyl peptidase 4 (Homo sapiens, UniProt P27487)
Sequence (P27487 whole entry): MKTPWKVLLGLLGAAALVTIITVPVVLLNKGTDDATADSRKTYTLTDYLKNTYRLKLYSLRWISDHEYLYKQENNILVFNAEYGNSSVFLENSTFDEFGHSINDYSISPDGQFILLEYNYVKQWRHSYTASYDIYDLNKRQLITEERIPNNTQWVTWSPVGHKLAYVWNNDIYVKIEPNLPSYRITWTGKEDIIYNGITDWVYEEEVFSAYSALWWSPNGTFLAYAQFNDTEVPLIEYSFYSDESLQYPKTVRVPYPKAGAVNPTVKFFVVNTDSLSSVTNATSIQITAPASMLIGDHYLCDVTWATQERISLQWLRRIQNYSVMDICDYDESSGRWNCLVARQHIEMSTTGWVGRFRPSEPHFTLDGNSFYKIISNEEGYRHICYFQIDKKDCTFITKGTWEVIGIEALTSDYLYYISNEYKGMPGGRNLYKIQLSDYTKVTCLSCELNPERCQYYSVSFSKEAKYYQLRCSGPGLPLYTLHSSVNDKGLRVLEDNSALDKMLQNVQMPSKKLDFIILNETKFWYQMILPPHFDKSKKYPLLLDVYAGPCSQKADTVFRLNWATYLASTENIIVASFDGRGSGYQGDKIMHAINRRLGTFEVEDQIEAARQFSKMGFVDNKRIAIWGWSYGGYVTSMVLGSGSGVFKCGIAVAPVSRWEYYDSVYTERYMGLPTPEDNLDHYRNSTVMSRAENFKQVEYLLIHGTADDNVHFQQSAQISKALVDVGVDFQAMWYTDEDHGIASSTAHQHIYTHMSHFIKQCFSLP
Description: Inhibition of human DPP4 expressed in baculovirus system

Row | Structure (SMILES) | IC50 [µM]
1 | N#C[C@@H]1CCCN1C(=O)CN1CCc2ccccc2C1 | 390
2 | N[C@H](C(=O)N1CCc2ccccc2C1)C1CCCCC1 | 230

Reference: ChEMBL document CHEMBL1141676, “A three-dimensional pharmacophore model for dipeptidyl peptidase IV inhibitors” (Eur J Med Chem, 2008)
